Source: PubChem BioAssay (NCI)
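Method: 48-hour compound exposure of cells in 96-well plates, five concentrations, linear interpolation of endpoints. GI50: concentration for 50% inhibition of growth. TGI marks complete inhibition of growth.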

How the values were obtained:
Assay in all cases: NCI anticancer screen, dose series, 48 h
UACC-62 melanoma = system: UACC-62 melanoma
SK-MEL-5 melanoma = system: SK-MEL-5 melanoma
SF-295 CNS = system: SF-295 CNS
HCT-15 colon = system: HCT-15 colon
SR leukemia = system: SR leukemia
COLO 205 colon = system: COLO 205 colon
IGROV1 ovarian = system: IGROV1 ovarian
OVCAR-8 ovarian = system: OVCAR-8 ovarian
NCI-H23 lung = system: NCI-H23 lung
CAKI-1 renal = system: CAKI-1 renal
CCRF-CEM leukemia = system: CCRF-CEM leukemia
RPMI-8226 leukemia = system: RPMI-8226 leukemia
T-47D breast = system: T-47D breast
NCI-H522 lung = system: NCI-H522 lung
SF-268 CNS = system: SF-268 CNS
MALME-3M melanoma = system: MALME-3M melanoma
U251 CNS = system: U251 CNS
HL-60(TB) leukemia = system: HL-60(TB) leukemia
HCT-116 colon = system: HCT-116 colon
786-0 renal = system: 786-0 renal
NCI-H226 lung = system: NCI-H226 lung
SK-OV-3 ovarian = system: SK-OV-3 ovarian
TK-10 renal = system: TK-10 renal
SW-620 colon = system: SW-620 colon
SK-MEL-2 melanoma = system: SK-MEL-2 melanoma
DU-145 prostate = system: DU-145 prostate
A549 NSCLC = system: A549 NSCLC
ACHN renal = system: ACHN renal
SN12C renal = system: SN12C renal
RXF 393 renal = system: RXF 393 renal
NCI-H460 lung = system: NCI-H460 lung
OVCAR-5 ovarian = system: OVCAR-5 ovarian
OVCAR-3 ovarian = system: OVCAR-3 ovarian
BT-549 breast = system: BT-549 breast
HT29 colon = system: HT29 colon
SK-MEL-28 melanoma = system: SK-MEL-28 melanoma
SNB-75 CNS = system: SNB-75 CNS
K-562 leukemia = system: K-562 leukemia
SF-539 CNS = system: SF-539 CNS
HS 578T breast = system: HS 578T breast
SNB-19 CNS = system: SNB-19 CNS
HOP-62 NSCLC = system: HOP-62 NSCLC
MCF7 breast = system: MCF7 breast
MDA-MB-435 = system: MDA-MB-435
UACC-257 melanoma = system: UACC-257 melanoma
LOX IMVI melanoma = system: LOX IMVI melanoma
UO-31 renal = system: UO-31 renal
A498 renal = system: A498 renal
NCI/ADR-RES ovarian = system: NCI/ADR-RES ovarian
KM12 colon = system: KM12 colon
HCC-2998 colon = system: HCC-2998 colon
HOP-92 NSCLC = system: HOP-92 NSCLC
OVCAR-4 ovarian = system: OVCAR-4 ovarian
MOLT-4 leukemia = system: MOLT-4 leukemia
PC-3 prostate = system: PC-3 prostate
M14 melanoma = system: M14 melanoma

Cc1ccc2c(n1)C(=O)C(Cl)=C(Nc1cccc(C(F)(F)F)c1)C2=O
GI50 (UACC-62 melanoma): 4.28 µM
TGI (UACC-62 melanoma): 18.4 µM
GI50 (SK-MEL-5 melanoma): 2750 nM
TGI (SK-MEL-5 melanoma): 7.84 µM
GI50 (SF-295 CNS): 16.3 µM
TGI (SF-295 CNS): 31.2 µM
GI50 (HCT-15 colon): 1660 nM
TGI (HCT-15 colon): 3.55 µM
GI50 (SR leukemia): 1560 nM
TGI (SR leukemia): 5 µM
GI50 (COLO 205 colon): 1820 nM
TGI (COLO 205 colon): 3.78 µM
GI50 (IGROV1 ovarian): 1870 nM
TGI (IGROV1 ovarian): 3.6 µM
GI50 (OVCAR-8 ovarian): 2680 nM
TGI (OVCAR-8 ovarian): 8.93 µM
GI50 (NCI-H23 lung): 1820 nM
TGI (NCI-H23 lung): 4.67 µM
GI50 (CAKI-1 renal): 1580 nM
TGI (CAKI-1 renal): 3.01 µM
GI50 (CCRF-CEM leukemia): 1460 nM
TGI (CCRF-CEM leukemia): 4.71 µM
GI50 (RPMI-8226 leukemia): 1920 nM
TGI (RPMI-8226 leukemia): 5.91 µM
GI50 (T-47D breast): 1930 nM
TGI (T-47D breast): 4.8 µM
GI50 (NCI-H522 lung): 2030 nM
TGI (NCI-H522 lung): 5.12 µM
GI50 (SF-268 CNS): 4.76 µM
TGI (SF-268 CNS): 19.6 µM
GI50 (MALME-3M melanoma): 1790 nM
TGI (MALME-3M melanoma): 3.61 µM
GI50 (U251 CNS): 6.45 µM
TGI (U251 CNS): 24.8 µM
GI50 (HL-60(TB) leukemia): 1500 nM
TGI (HL-60(TB) leukemia): 3.68 µM
GI50 (HCT-116 colon): 1510 nM
TGI (HCT-116 colon): 3.22 µM
GI50 (786-0 renal): 1800 nM
TGI (786-0 renal): 3.55 µM
GI50 (NCI-H226 lung): 2570 nM
TGI (NCI-H226 lung): 11.5 µM
GI50 (SK-OV-3 ovarian): 14.2 µM
TGI (SK-OV-3 ovarian): 27.6 µM
GI50 (TK-10 renal): 2010 nM
TGI (TK-10 renal): 3.52 µM
GI50 (SW-620 colon): 2050 nM
TGI (SW-620 colon): 4.89 µM
GI50 (SK-MEL-2 melanoma): 2380 nM
TGI (SK-MEL-2 melanoma): 5.73 µM
GI50 (DU-145 prostate): 1800 nM
TGI (DU-145 prostate): 3.31 µM
GI50 (A549 NSCLC): 20.1 µM
TGI (A549 NSCLC): 50 µM
GI50 (ACHN renal): 1780 nM
TGI (ACHN renal): 3.31 µM
GI50 (SN12C renal): 2160 nM
TGI (SN12C renal): 5.66 µM
GI50 (RXF 393 renal): 1610 nM
TGI (RXF 393 renal): 3 µM
GI50 (NCI-H460 lung): 18.4 µM
TGI (NCI-H460 lung): 40.8 µM
GI50 (OVCAR-5 ovarian): 6.03 µM
TGI (OVCAR-5 ovarian): 22.1 µM
GI50 (OVCAR-3 ovarian): 1680 nM
TGI (OVCAR-3 ovarian): 3.11 µM
GI50 (BT-549 breast): 2160 nM
TGI (BT-549 breast): 5.47 µM
GI50 (HT29 colon): 2600 nM
TGI (HT29 colon): 6.63 µM
GI50 (SK-MEL-28 melanoma): 1950 nM
TGI (SK-MEL-28 melanoma): 3.66 µM
GI50 (SNB-75 CNS): 13 µM
TGI (SNB-75 CNS): 27.4 µM
GI50 (K-562 leukemia): 310 nM
TGI (K-562 leukemia): 1300 nM
GI50 (SF-539 CNS): 3.18 µM
TGI (SF-539 CNS): 10.3 µM
GI50 (HS 578T breast): 15.1 µM
TGI (HS 578T breast): 85.6 µM
GI50 (SNB-19 CNS): 16 µM
TGI (SNB-19 CNS): 45.3 µM
GI50 (HOP-62 NSCLC): 17 µM
TGI (HOP-62 NSCLC): 31.8 µM
GI50 (MCF7 breast): 1850 nM
TGI (MCF7 breast): 4.66 µM
GI50 (MDA-MB-435): 1950 nM
TGI (MDA-MB-435): 3.91 µM
GI50 (UACC-257 melanoma): 1650 nM
TGI (UACC-257 melanoma): 3.24 µM
GI50 (LOX IMVI melanoma): 1510 nM
TGI (LOX IMVI melanoma): 3.33 µM
GI50 (UO-31 renal): 1540 nM
TGI (UO-31 renal): 2950 nM
GI50 (A498 renal): 13.8 µM
TGI (A498 renal): 27.9 µM
GI50 (NCI/ADR-RES ovarian): 2650 nM
TGI (NCI/ADR-RES ovarian): 7.88 µM
GI50 (KM12 colon): 15.9 µM
TGI (KM12 colon): 32.3 µM
GI50 (HCC-2998 colon): 2600 nM
TGI (HCC-2998 colon): 6.48 µM
GI50 (HOP-92 NSCLC): 1910 nM
TGI (HOP-92 NSCLC): 3.89 µM
GI50 (OVCAR-4 ovarian): 1560 nM
TGI (OVCAR-4 ovarian): 3.27 µM
GI50 (MOLT-4 leukemia): 1690 nM
TGI (MOLT-4 leukemia): 5.38 µM
GI50 (PC-3 prostate): 2900 nM
TGI (PC-3 prostate): 11.5 µM
GI50 (M14 melanoma): 1920 nM
TGI (M14 melanoma): 4.39 µM
